Experimental data taken from the supplement of paper PMC11061612.

Assays:
[1] = test system: CHSA8926 (Chondrosarcoma); assay: Bliss excess, mean over the matrix (fraction); higher = more synergy
Procedure, shortened: (§1)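 Cell lines grown in DMEM/F12 or RPMI with 10% FBS were plated in 1536-well plates and held 24 hours at 37°C, 5% CO2 before 72 hours of exposure to two-drug dose matrices, with DMSO typically at 0.2%. CellTiter-Glo 2.0 luminescence gave viability, which was converted to inhibition. Vehicle wells were set to 0 and blank wells to 1. Combination Emax is the second-highest inhibition in the matrix, and Bliss excess is the observed combination effect minus the expected EA + EB − EA·EB, where EA and EB are the single-agent effects.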

[2] = test system: ESO51 (Esophageal Adenocarcinoma); assay: as above
Procedure, shortened: as §1

G-361 (Melanoma) = assay: as above
Procedure, shortened: as §1

[3] = test system: H9 (T-Cell Non-Hodgkin's Lymphoma); assay: as above
Procedure, shortened: as §1

[4] = test system: HCC1187 (Breast Carcinoma); assay: as above
Procedure, shortened: as §1

[5] = test system: IM-95 (Gastric Carcinoma); assay: as above
Procedure, shortened: as §1

[6] = test system: JHH-4 (Hepatocellular Carcinoma); assay: as above
Procedure, shortened: as §1

[7] = test system: KP-3 (Pancreatic Carcinoma); assay: as above
Procedure, shortened: as §1

[8] = test system: KY821 (Acute Myeloid Leukemia); assay: as above
Procedure, shortened: as §1

[9] = test system: MN-60 (B-Lymphoblastic Leukemia); assay: as above
Procedure, shortened: as §1

[10] = test system: MOLM-13 (Acute Myeloid Leukemia); assay: as above
Procedure, shortened: as §1

[11] = test system: NCCIT (Other Solid Carcinomas); assay: as above
Procedure, shortened: as §1

NCI-H2731 (Mesothelioma) = assay: as above
Procedure, shortened: as §1

[12] = test system: NCI-H3122 (Lung Adenocarcinoma); assay: as above
Procedure, shortened: as §1

[13] = test system: NCI-H526 (Small Cell Lung Carcinoma); assay: as above
Procedure, shortened: as §1

[14] = test system: PC-3 (Prostate Carcinoma); assay: as above
Procedure, shortened: as §1

[15] = test system: SU-DHL-5 (B-Cell Non-Hodgkin's Lymphoma); assay: as above
Procedure, shortened: as §1

[16] = test system: SUP-B15 (B-Lymphoblastic Leukemia); assay: as above
Procedure, shortened: as §1

[17] = test system: T-T (Esophageal Squamous Cell Carcinoma); assay: as above
Procedure, shortened: as §1

[18] = test system: 8505C (Thyroid Gland Carcinoma); assay: combination Emax (second highest fraction inhibited in the dose matrix, 72 h); higher = more inhibition; extreme values may be limits of the assay
Procedure, shortened: as §1
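Wherever Bliss excess, mean over the matrix is given: after 72 h of two-drug dosing.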

SMILES	Bliss excess [1]	Bliss excess [2]	Bliss excess (G-361 (Melanoma))	Bliss excess [3]	Bliss excess [4]	Bliss excess [5]	Bliss excess [6]	Bliss excess [7]	Bliss excess [8]	Bliss excess [9]	Bliss excess [10]	Bliss excess [11]	Bliss excess (NCI-H2731 (Mesothelioma))	Bliss excess [12]	Bliss excess [13]	Bliss excess [14]	Bliss excess [15]	Bliss excess [16]	Bliss excess [17]	combination Emax [18]
CN(C)CCCOc1ccc(-c2ccc3ncc4c(c3c2)n(C2CCOCC2)c(=O)n4C)cn1 [AZD0156] + C=CCn1c(=O)c2cnc(Nc3ccc(N4CCN(C)CC4)cc3)nc2n1-c1cccc(C(C)(C)O)n1 [AZD1775] (first compound max 1 µM, partner max 1 µM)	-0.106	0.0363	-0.0556	-0.0167	-0.0117	-0.0366	-0.0065	-0.0212	-0.0505	0.0193	-0.0885	0.0278	-0.0898	-0.0352	-0.0258	-0.0501	-0.0016	0.0282	-0.0122	0.126
CN(C)CCCOc1ccc(-c2ccc3ncc4c(c3c2)n(C2CCOCC2)c(=O)n4C)cn1 [AZD0156] + CCN(CCO)CCCOc1ccc2c(Nc3cc(CC(=O)Nc4cccc(F)c4)[nH]n3)ncnc2c1 [AZD2811] (first compound max 1 µM, 7x7, partner max 1 µM)	-0.0389	-0.0147	-0.0148	-0.124	-0.0596	0.0925	-0.0297	-0.0417	0.147	-0.016	-0.0617	-0.0059	-0.0279	-0.0048	0.0113	-0.0243	-0.0542	-0.0595	-0.0262	0.102
CN(C)CCCOc1ccc(-c2ccc3ncc4c(c3c2)n(C2CCOCC2)c(=O)n4C)cn1 [AZD0156] + C[C@@H]1COCCN1C2=NC(=NC(=C2)C3(CC3)[S@](=N)(=O)C)C4=C5C=CNC5=NC=C4 [AZD6738] (first compound max 1 µM, 7x7, partner max 10 µM)	-0.0328	-0.0449	0.032	0.0525	0.0161	-0.0126	-0.0317	-0.0325	0.0228	-0.0041	-0.0334	-0.0174	-0.0532	0.0218	-0.0051	-0.0168	0.0265	0.0247	-0.014	0.24
CN(C)CCCOc1ccc(-c2ccc3ncc4c(c3c2)n(C2CCOCC2)c(=O)n4C)cn1 [AZD0156] + O=C(c1cc(Cc2n[nH]c(=O)c3ccccc23)ccc1F)N1CCN(C(=O)C2CC2)CC1 [Olaparib] (first compound max 3 µM, partner max 3 µM)	-0.0022	0.0292	0.0857	0.0284	0.0813	-0.0093	-0.0166	-0.0305	0.0829	-0.0615	0.21	0.0093	0.0068	-0.0062	0.167	-0.0088	0.197	-0.0159	0.122	0.392
C=CCn1c(=O)c2cnc(Nc3ccc(N4CCN(C)CC4)cc3)nc2n1-c1cccc(C(C)(C)O)n1 [AZD1775] + C1CN(CCC1(C(=O)N[C@@H](CCO)C2=CC=C(C=C2)Cl)N)C3=NC=NC4=C3C=CN4 [Capivasertib] (first compound max 3 µM, partner max 3 µM)	0.0361	-0.004	-0.0042	-0.0311	0.0216	0.0275	0.0061	0.0131	0.0225	-0.0565	0.0263	0.0254	0.0078	-0.0298	-0.06	-0.0617	0.0233	0.0073	-0.0047	0.741
C=CCn1c(=O)c2cnc(Nc3ccc(N4CCN(C)CC4)cc3)nc2n1-c1cccc(C(C)(C)O)n1 [AZD1775] + C[C@@H]1COCCN1C2=NC(=NC(=C2)C3(CC3)[S@](=N)(=O)C)C4=C5C=CNC5=NC=C4 [AZD6738] (first compound max 1 µM, partner max 10 µM)	-0.0268	-0.0247	-0.0177	0.0607	0.0558	0.0804	0.0007	-0.0075	0.0358	0.0165	0.0233	0.0526	0.0444	0.0165	0.0576	-0.0049	0.0446	0.0535	0.0089	
C=CCn1c(=O)c2cnc(Nc3ccc(N4CCN(C)CC4)cc3)nc2n1-c1cccc(C(C)(C)O)n1 [AZD1775] + O=C(c1cc(Cc2n[nH]c(=O)c3ccccc23)ccc1F)N1CCN(C(=O)C2CC2)CC1 [Olaparib] (first compound max 1 µM, partner max 10 µM)	-0.0167	-0.0917	-0.0217	-0.0075	0.0546	-0.0047	-0.0254	-0.0118	0.019	-0.0143	0.0405	-0.0458	-0.0438	-0.0111	-0.0152	-0.0663	0.0215	-0.0148	-0.002	0.319
CCN(CCO)CCCOc1ccc2c(Nc3cc(CC(=O)Nc4cccc(F)c4)[nH]n3)ncnc2c1 [AZD2811] + C=CCn1c(=O)c2cnc(Nc3ccc(N4CCN(C)CC4)cc3)nc2n1-c1cccc(C(C)(C)O)n1 [AZD1775] (first compound max 1 µM, partner max 1 µM)	0.0032	-0.0002	-0.0162	0.0252	-0.0086	0.0486	0.0015	-0.036	0.0868	0.0139	-0.0698	-0.0037	0.0089	-0.0512	-0.0226	-0.0117	-0.0309	0.044	-0.037	0.188
COc1nnc2ccc(N3CCC(c4ccc(OCCN5CCN(C)C(=O)[C@H]5C)cc4)CC3)nn12 [AZD5153] + CN(CC[C@H](CSC1=CC=CC=C1)NC2=C(C=C(C=C2)S(=O)(=O)NC(=O)C3=CC=C(C=C3)N4CCC(CC4)[C@H](C5=CC=CC=C5C6=CC=C(C=C6)Cl)O)S(=O)(=O)C(F)(F)F)CCO [AZD4320] (first compound max 1 µM, 7x7, partner max 1 µM)	-0.0781	-0.0079	0.0314	-0.0291	0.0165	-0.0568	0.0556		0.0111		0.0205					0.0691	-0.0155	-0.0077		0.441
Cc1c2c(nn1C)CSCc1cc(n(C)n1)CSc1cc(c3ccccc3c1)OCCCc1c(C(=O)O)n(C)c3c-2c(Cl)ccc13 [AZD5991] + CN(C)CCCOc1ccc(-c2ccc3ncc4c(c3c2)n(C2CCOCC2)c(=O)n4C)cn1 [AZD0156] (first compound max 1 µM, 7x7, partner max 1 µM)	0.0117	0.0193	0.0371	0.0314	-0.0266	-0.0198	-0.0063	0.0077	-0.0327	0.0047	-0.0329	-0.039	-0.0444	0.0187	0.0054		-0.0041	-0.0117	-0.0025	0.609
Cc1c2c(nn1C)CSCc1cc(n(C)n1)CSc1cc(c3ccccc3c1)OCCCc1c(C(=O)O)n(C)c3c-2c(Cl)ccc13 [AZD5991] + Cc1cc2ncnn2cc1Nc1ncc2c(n1)n(C1CCOCC1)c(=O)n2C [AZD7648] (first compound max 1 µM, 7x7, partner max 10 µM)	-0.0376	-0.0216	0.0031		-0.0299	-0.0615	-0.0217	-0.0462	-0.0302	0.0011	-0.0165	-0.0494	-0.0637	-0.0563	-0.0042	-0.135	-0.0377	0.0099	0.007	0.193
CS(=O)(=O)CCNCc1ccc(-c2ccc3ncnc(Nc4ccc(OCc5cccc(F)c5)c(Cl)c4)c3c2)o1 [Lapatinib] + NC1(c2ccc(-c3nc4ccn5c(=O)[nH]nc5c4cc3-c3ccccc3)cc2)CCC1 [MK-2206] (first compound max 10 µM, 7x7, partner max 10 µM)				-0.247		0.0488		-0.0194	0.0724	0.0332		-0.0143	0.0201	-0.0497	0.0254				-0.0168	
CCc1c2c(nc3ccc(O)cc13)-c1cc3c(c(=O)n1C2)COC(=O)[C@]3(O)CC [SN-38] + O=C(c1cc(Cc2n[nH]c(=O)c3ccccc23)ccc1F)N1CCN(C(=O)C2CC2)CC1 [Olaparib] (first compound max 0.3 µM, 7x7, partner max 10 µM)	0.0247	-0.0199	0.0322	0.111	0.0419	0.036		-0.0338	0.0503	0.0066		0.0062	0.0324	0.0685	0.0278		0.065		-0.0243	0.849
Cc1nc(-c2cn3c(n2)-c2ccc(-c4cnn(C(C)(C)C(N)=O)c4)cc2OCC3)n(C(C)C)n1 [Taselisib] + O=C(Nc1ccc2[nH]nc(-c3ccncc3)c2c1)[C@@H]1CCN(CC(=O)N2CCN(c3ccc(-c4ncccn4)cc3)CC2)C1 [SCH772984] (first compound max 10 µM, 7x7, partner max 5 µM)								0.0368		-0.026		-0.032	0.0323	0.126	0.0117				0.133	
CC(=O)Nc1cccc(-n2c(=O)n(C3CC3)c(=O)c3c(Nc4ccc(I)cc4F)n(C)c(=O)c(C)c32)c1 [Trametinib] + Cc1nc(-c2cn3c(n2)-c2ccc(-c4cnn(C(C)(C)C(N)=O)c4)cc2OCC3)n(C(C)C)n1 [Taselisib] (first compound max 1 µM, 7x7, partner max 10 µM)		0.0533	0.0078	0.0402	0.0462	0.196	0.0462	0.0777	-0.0601	0.0265	0.215	0.0184	0.0312	0.116	-0.0308	-0.0138	0.0452	0.539	0.245	0.496
